Measured values as given in ChEMBL document CHEMBL1275522, “Antimicrobial studies with the Pseudomonas aeruginosa two-allele library require caution” (2008).
Values after ≈ are worked out from the molar mass of the structure shown.

Key:
Assay type in all cases: functional
Pseudomonas aeruginosa [1] = test: Antimicrobial against Pseudomonas aeruginosa 9256 harboring ybhO allele by Etest method
Pseudomonas aeruginosa [2] = test: Antimicrobial against Pseudomonas aeruginosa 3465 harboring tsaA allele by Etest method
Pseudomonas aeruginosa [3] = test: Antimicrobial against Pseudomonas aeruginosa 3208 harboring phzM allele by Etest method
Pseudomonas aeruginosa [4] = test: Antimicrobial against Pseudomonas aeruginosa PAO1 by Etest method
Pseudomonas aeruginosa [5] = test: Antimicrobial against Pseudomonas aeruginosa 3894 by Etest method
Pseudomonas aeruginosa [6] = test: Antimicrobial against Pseudomonas aeruginosa 8564 harboring pyrX allele by Etest method
Pseudomonas aeruginosa [7] = test: Antimicrobial against Pseudomonas aeruginosa 312 harboring PBPP allele by Etest method
Pseudomonas aeruginosa [8] = test: Antimicrobial against Pseudomonas aeruginosa 32455 harboring phzS allele by Etest method
Pseudomonas aeruginosa [9] = test: Antimicrobial against Pseudomonas aeruginosa 46396 harboring katA allele by Etest method
Pseudomonas aeruginosa [10] = test: Antimicrobial against Pseudomonas aeruginosa 30848 harboring phoU allele by Etest method
Pseudomonas aeruginosa [11] = test: Antimicrobial against Pseudomonas aeruginosa 1494 harboring phnA allele by Etest method
Pseudomonas aeruginosa [12] = test: Antimicrobial against Pseudomonas aeruginosa 33410 harboring phoU allele by Etest method
Pseudomonas aeruginosa [13] = test: Antimicrobial against Pseudomonas aeruginosa 3434 by Etest method
Pseudomonas aeruginosa [14] = test: Antimicrobial against Pseudomonas aeruginosa 40198 harboring nirJ allele by Etest method
Pseudomonas aeruginosa [15] = test: Antimicrobial against Pseudomonas aeruginosa 8666 by Etest method
Pseudomonas aeruginosa [16] = test: Antimicrobial against Pseudomonas aeruginosa 3434 by broth dilution method
Pseudomonas aeruginosa [17] = test: Antimicrobial against Pseudomonas aeruginosa PAO1 by broth dilution method
Pseudomonas aeruginosa [18] = test: Antimicrobial against Pseudomonas aeruginosa 32455 harboring phzS allele by broth dilution method
Pseudomonas aeruginosa [19] = test: Antimicrobial against Pseudomonas aeruginosa 3465 harboring tsaA allele by broth dilution method
Pseudomonas aeruginosa [20] = test: Antimicrobial against Pseudomonas aeruginosa 1494 harboring phnA allele by broth dilution method
Pseudomonas aeruginosa [21] = test: Antimicrobial against Pseudomonas aeruginosa 3894 by broth dilution method
Pseudomonas aeruginosa [22] = test: Antimicrobial against Pseudomonas aeruginosa 9256 harboring ybhO allele by broth dilution method
Pseudomonas aeruginosa [23] = test: Antimicrobial against Pseudomonas aeruginosa 40198 harboring nirJ allele by broth dilution method
Pseudomonas aeruginosa [24] = test: Antimicrobial against Pseudomonas aeruginosa 8666 by broth dilution method
Pseudomonas aeruginosa [25] = test: Antimicrobial against Pseudomonas aeruginosa 312 harboring PBPP allele by broth dilution method
Pseudomonas aeruginosa [26] = test: Antimicrobial against Pseudomonas aeruginosa 3208 harboring phzM allele by broth dilution method
Pseudomonas aeruginosa [27] = test: Antimicrobial against Pseudomonas aeruginosa 30848 harboring phoU allele by broth dilution method
Pseudomonas aeruginosa [28] = test: Antimicrobial against Pseudomonas aeruginosa 33410 harboring phoU allele by broth dilution method
Pseudomonas aeruginosa [29] = test: Antimicrobial against Pseudomonas aeruginosa 8564 harboring pyrX allele by broth dilution method
Pseudomonas aeruginosa [30] = test: Antimicrobial against Pseudomonas aeruginosa 46396 harboring katA allele by broth dilution method

SMILES: CC(C)(O/N=C(\C(=O)N[C@@H]1C(=O)N2C(C(=O)[O-])=C(C[n+]3ccccc3)CS[C@H]12)c1csc(N)n1)C(=O)O [CEFTAZIDIME]
- MIC (Pseudomonas aeruginosa [1]): 2 µg/mL (≈ 3.66 µM)
- MIC (Pseudomonas aeruginosa [2]): 2 µg/mL (≈ 3.66 µM)
- MIC (Pseudomonas aeruginosa [3]): 2 µg/mL (≈ 3.66 µM)
- MIC (Pseudomonas aeruginosa [4]): 2 µg/mL (≈ 3.66 µM)
- MIC (Pseudomonas aeruginosa [5]): 2.5 µg/mL (≈ 4.57 µM)
- MIC (Pseudomonas aeruginosa [6]): 1.5 µg/mL (≈ 2.74 µM)
- MIC (Pseudomonas aeruginosa [7]): 2 µg/mL (≈ 3.66 µM)
- MIC (Pseudomonas aeruginosa [8]): 2 µg/mL (≈ 3.66 µM)
- MIC (Pseudomonas aeruginosa [9]): 2 µg/mL (≈ 3.66 µM)
- MIC (Pseudomonas aeruginosa [10]): 3 µg/mL (≈ 5.49 µM)
- MIC (Pseudomonas aeruginosa [11]): 1.5 µg/mL (≈ 2.74 µM)
- MIC (Pseudomonas aeruginosa [12]): 1.5 µg/mL (≈ 2.74 µM)
- MIC (Pseudomonas aeruginosa [13]): 2.5 µg/mL (≈ 4.57 µM)
- MIC (Pseudomonas aeruginosa [14]): 1.5 µg/mL (≈ 2.74 µM)
- MIC (Pseudomonas aeruginosa [15]): 2 µg/mL (≈ 3.66 µM)

SMILES: O=C(N[C@H](CO)[C@H](O)c1ccc([N+](=O)[O-])cc1)C(Cl)Cl [CHLORAMPHENICOL]
- MIC (Pseudomonas aeruginosa [16]): 25 µg/mL (≈ 77.4 µM)
- MIC (Pseudomonas aeruginosa [17]): 800 µg/mL (≈ 2480 µM)
- MIC (Pseudomonas aeruginosa [18]): 12.5 µg/mL (≈ 38.7 µM)
- MIC (Pseudomonas aeruginosa [19]): 12.5 µg/mL (≈ 38.7 µM)
- MIC (Pseudomonas aeruginosa [20]): 12.5 µg/mL (≈ 38.7 µM)
- MIC (Pseudomonas aeruginosa [21]): 12.5 µg/mL (≈ 38.7 µM)
- MIC (Pseudomonas aeruginosa [22]): 12.5 µg/mL (≈ 38.7 µM)
- MIC (Pseudomonas aeruginosa [23]): 12.5 µg/mL (≈ 38.7 µM)
- MIC (Pseudomonas aeruginosa [24]): 12.5 µg/mL (≈ 38.7 µM)
- MIC (Pseudomonas aeruginosa [25]): 12.5 µg/mL (≈ 38.7 µM)
- MIC (Pseudomonas aeruginosa [26]): 12.5 µg/mL (≈ 38.7 µM)
- MIC (Pseudomonas aeruginosa [27]): 200 µg/mL (≈ 619 µM)
- MIC (Pseudomonas aeruginosa [28]): 12.5 µg/mL (≈ 38.7 µM)
- MIC (Pseudomonas aeruginosa [29]): 12.5 µg/mL (≈ 38.7 µM)
- MIC (Pseudomonas aeruginosa [30]): 12.5 µg/mL (≈ 38.7 µM)

SMILES: O=C(O)c1cn(C2CC2)c2cc(N3CCNCC3)c(F)cc2c1=O [CIPROFLOXACIN]
- MIC (Pseudomonas aeruginosa [16]): 0.05 µg/mL (≈ 0.151 µM)
- MIC (Pseudomonas aeruginosa [17]): 0.8 µg/mL (≈ 2.41 µM)
- MIC (Pseudomonas aeruginosa [18]): 0.1 µg/mL (≈ 0.302 µM)
- MIC (Pseudomonas aeruginosa [19]): 0.1 µg/mL (≈ 0.302 µM)
- MIC (Pseudomonas aeruginosa [20]): 0.1 µg/mL (≈ 0.302 µM)
- MIC (Pseudomonas aeruginosa [21]): 0.05 µg/mL (≈ 0.151 µM)
- MIC (Pseudomonas aeruginosa [22]): 0.1 µg/mL (≈ 0.302 µM)
- MIC (Pseudomonas aeruginosa [23]): 0.1 µg/mL (≈ 0.302 µM)
- MIC (Pseudomonas aeruginosa [24]): 0.1 µg/mL (≈ 0.302 µM)
- MIC (Pseudomonas aeruginosa [25]): 0.1 µg/mL (≈ 0.302 µM)
- MIC (Pseudomonas aeruginosa [26]): 0.1 µg/mL (≈ 0.302 µM)
- MIC (Pseudomonas aeruginosa [27]): 0.2 µg/mL (≈ 0.604 µM)
- MIC (Pseudomonas aeruginosa [28]): 0.05 µg/mL (≈ 0.151 µM)
- MIC (Pseudomonas aeruginosa [29]): 0.1 µg/mL (≈ 0.302 µM)
- MIC (Pseudomonas aeruginosa [30]): 0.1 µg/mL (≈ 0.302 µM)

SMILES: C[C@@H](O)[C@H]1C(=O)N2C(C(=O)O)=C(S[C@@H]3CN[C@H](C(=O)N(C)C)C3)[C@H](C)[C@H]12 [MEROPENEM]
- MIC (Pseudomonas aeruginosa [1]): 0.25 µg/mL (≈ 0.652 µM)
- MIC (Pseudomonas aeruginosa [2]): 0.25 µg/mL (≈ 0.652 µM)
- MIC (Pseudomonas aeruginosa [3]): 0.38 µg/mL (≈ 0.991 µM)
- MIC (Pseudomonas aeruginosa [4]): 0.38 µg/mL (≈ 0.991 µM)
- MIC (Pseudomonas aeruginosa [5]): 0.19 µg/mL (≈ 0.495 µM)
- MIC (Pseudomonas aeruginosa [6]): 0.38 µg/mL (≈ 0.991 µM)
- MIC (Pseudomonas aeruginosa [7]): 0.25 µg/mL (≈ 0.652 µM)
- MIC (Pseudomonas aeruginosa [8]): 0.25 µg/mL (≈ 0.652 µM)
- MIC (Pseudomonas aeruginosa [9]): 0.25 µg/mL (≈ 0.652 µM)
- MIC (Pseudomonas aeruginosa [10]): 0.5 µg/mL (≈ 1.3 µM)
- MIC (Pseudomonas aeruginosa [11]): 0.38 µg/mL (≈ 0.991 µM)
- MIC (Pseudomonas aeruginosa [12]): 0.38 µg/mL (≈ 0.991 µM)
- MIC (Pseudomonas aeruginosa [13]): 0.38 µg/mL (≈ 0.991 µM)
- MIC (Pseudomonas aeruginosa [14]): 0.25 µg/mL (≈ 0.652 µM)
- MIC (Pseudomonas aeruginosa [15]): 0.25 µg/mL (≈ 0.652 µM)

SMILES: CCn1cc(C(=O)O)c(=O)c2cc3c(cc21)OCO3 [OXOLINIC ACID]
- MIC (Pseudomonas aeruginosa [16]): 4 µg/mL (≈ 15.3 µM)
- MIC (Pseudomonas aeruginosa [17]): 64 µg/mL (≈ 245 µM)
- MIC (Pseudomonas aeruginosa [18]): 4 µg/mL (≈ 15.3 µM)
- MIC (Pseudomonas aeruginosa [19]): 4 µg/mL (≈ 15.3 µM)
- MIC (Pseudomonas aeruginosa [20]): 8 µg/mL (≈ 30.6 µM)
- MIC (Pseudomonas aeruginosa [21]): 8 µg/mL (≈ 30.6 µM)
- MIC (Pseudomonas aeruginosa [22]): 8 µg/mL (≈ 30.6 µM)
- MIC (Pseudomonas aeruginosa [23]): 8 µg/mL (≈ 30.6 µM)
- MIC (Pseudomonas aeruginosa [24]): 8 µg/mL (≈ 30.6 µM)
- MIC (Pseudomonas aeruginosa [25]): 8 µg/mL (≈ 30.6 µM)
- MIC (Pseudomonas aeruginosa [26]): 4 µg/mL (≈ 15.3 µM)
- MIC (Pseudomonas aeruginosa [27]): 16 µg/mL (≈ 61.2 µM)
- MIC (Pseudomonas aeruginosa [28]): 4 µg/mL (≈ 15.3 µM)
- MIC (Pseudomonas aeruginosa [29]): 8 µg/mL (≈ 30.6 µM)
- MIC (Pseudomonas aeruginosa [30]): 8 µg/mL (≈ 30.6 µM)

SMILES: NC[C@H]1O[C@H](O[C@H]2[C@H](O)[C@@H](O[C@H]3O[C@H](CO)[C@@H](O)[C@H](N)[C@H]3O)[C@H](N)C[C@@H]2N)[C@H](N)C[C@@H]1O [TOBRAMYCIN]
- MIC (Pseudomonas aeruginosa [16]): 0.4 µg/mL (≈ 0.856 µM)
- MIC (Pseudomonas aeruginosa [17]): 0.2 µg/mL (≈ 0.428 µM)
- MIC (Pseudomonas aeruginosa [18]): 0.4 µg/mL (≈ 0.856 µM)
- MIC (Pseudomonas aeruginosa [19]): 0.2 µg/mL (≈ 0.428 µM)
- MIC (Pseudomonas aeruginosa [20]): 0.4 µg/mL (≈ 0.856 µM)
- MIC (Pseudomonas aeruginosa [21]): 0.4 µg/mL (≈ 0.856 µM)
- MIC (Pseudomonas aeruginosa [22]): 0.4 µg/mL (≈ 0.856 µM)
- MIC (Pseudomonas aeruginosa [23]): 0.4 µg/mL (≈ 0.856 µM)
- MIC (Pseudomonas aeruginosa [24]): 0.2 µg/mL (≈ 0.428 µM)
- MIC (Pseudomonas aeruginosa [25]): 0.2 µg/mL (≈ 0.428 µM)
- MIC (Pseudomonas aeruginosa [26]): 0.2 µg/mL (≈ 0.428 µM)
- MIC (Pseudomonas aeruginosa [27]): 0.4 µg/mL (≈ 0.856 µM)
- MIC (Pseudomonas aeruginosa [28]): 0.4 µg/mL (≈ 0.856 µM)
- MIC (Pseudomonas aeruginosa [29]): 0.2 µg/mL (≈ 0.428 µM)
- MIC (Pseudomonas aeruginosa [30]): 0.2 µg/mL (≈ 0.428 µM)
